In paper PMC6009911, “Inhibition of human cytochromes P450 2A6 and 2A13 by flavonoids, acetylenic thiophenes and sesquiterpene lactones from Pluchea indica and Vernonia cinerea” (Journal of Enzyme Inhibition and Medicinal Chemistry, 2017):
Like-named read-outs stand apart in the source and are kept apart here. Blank lines part the entries; values can stand above or below the compound they belong to.

Assays:
[1] = molecular target: T1, CYP2A13 (Homo sapiens, UniProt Q16696); assay: Inhibition of CYP2A13-mediated coumarin 7-hydroxylation, enzymatic reconstitution assay; type: biochemical; details: for Ki: coumarin 0–40 µM
T1 construct: made in house
T1 sequence (Q16696 1-494): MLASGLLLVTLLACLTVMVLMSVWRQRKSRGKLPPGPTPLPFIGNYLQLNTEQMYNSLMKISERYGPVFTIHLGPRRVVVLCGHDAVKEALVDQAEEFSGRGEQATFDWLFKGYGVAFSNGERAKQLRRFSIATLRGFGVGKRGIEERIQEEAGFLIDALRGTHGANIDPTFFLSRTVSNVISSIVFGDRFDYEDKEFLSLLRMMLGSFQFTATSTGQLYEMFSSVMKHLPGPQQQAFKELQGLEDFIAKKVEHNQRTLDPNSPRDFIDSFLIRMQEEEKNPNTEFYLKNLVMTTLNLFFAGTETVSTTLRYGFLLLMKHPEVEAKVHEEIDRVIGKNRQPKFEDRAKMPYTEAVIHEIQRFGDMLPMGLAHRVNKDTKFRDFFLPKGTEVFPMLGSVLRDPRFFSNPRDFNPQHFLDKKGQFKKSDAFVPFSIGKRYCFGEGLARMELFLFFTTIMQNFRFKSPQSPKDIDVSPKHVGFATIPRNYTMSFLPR
Method: (§1) Inhibitory effect of plant extracts, fractions, subfractions and constituents was determined by inhibition assay on CYP2A6- and CYP2A13-mediated coumarin 7-hydroxylation. The recombinant human CYP2A6, CYP2A13 and rat NADPH-dependent cytochrome P450 oxidoreductase (CYPOR) proteins were expressed, purified, according to the methods previously described. […] Rate of 7-hydroxycoumarin product formation was measured on spectrofluorometer (Shimadzu, Kyoto, Japan) at λex = 355 nm, λem = 460 nm. Inhibition effects were determined by incubation with extracts, fractions or purified compounds with coumarin substrate in the reaction mixture and calculated as per cent relative inhibition compared with vehicle control reaction[20] and IC50 values were calculated using GraphPad Prism 5 (GraphPad Software Inc., La Jolla, CA).
(§2) MBI requires NADPH and time to generate reactive intermediate as inhibitor and ultimately inactivates the enzyme. MBI was evaluated by pre-incubation with each test inhibitor in the reaction at different time periods (0, 10, 20 and 30 min) in the presence of NADPH for time-dependent assay, as described. The apparent inactivation constants, KI and Kinact, were obtained from double reciprocal plots of kobs versus inhibitor concentrations by linear regression analysis on GraphPad Prism 5. Methoxsalen was used as a control mechanism-based inhibitor for time- and NADPH-dependent inhibition assays.

[2] = molecular target: T1, CYP2A13; assay: Mechanism-based (time- and NADPH-dependent) inactivation of CYP2A13; type: biochemical; details: pre-incubation 0-30 min with NADPH; for KI (inactivation): read-out: CYP2A13 KI (inactivation constant)
Method: as §2

[3] = molecular target: T2, CYP2A6 (Homo sapiens, UniProt P11509); assay: Inhibition of CYP2A6-mediated coumarin 7-hydroxylation, enzymatic reconstitution assay; type: biochemical; set-up: made in house; details: for Ki: coumarin 0–40 µM
T2 sequence (P11509 1-494): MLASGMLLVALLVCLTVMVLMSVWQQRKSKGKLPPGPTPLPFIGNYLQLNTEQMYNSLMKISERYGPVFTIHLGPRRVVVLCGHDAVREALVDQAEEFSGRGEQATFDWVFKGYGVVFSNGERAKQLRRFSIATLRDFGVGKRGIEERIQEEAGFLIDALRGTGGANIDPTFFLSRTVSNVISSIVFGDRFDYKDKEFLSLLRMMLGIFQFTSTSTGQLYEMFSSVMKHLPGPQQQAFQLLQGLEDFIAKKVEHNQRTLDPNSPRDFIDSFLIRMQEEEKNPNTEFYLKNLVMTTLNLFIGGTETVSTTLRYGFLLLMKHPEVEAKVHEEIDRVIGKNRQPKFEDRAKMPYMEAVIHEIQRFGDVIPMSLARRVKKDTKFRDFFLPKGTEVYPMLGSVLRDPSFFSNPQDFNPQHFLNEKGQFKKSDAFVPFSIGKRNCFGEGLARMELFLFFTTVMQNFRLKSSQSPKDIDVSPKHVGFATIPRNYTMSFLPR
Method: as §1, §2

[4] = molecular target: T2, CYP2A6; assay: Effects of trapping agents and dialysis on inactivation of CYP2A6; type: biochemical; set-up: made in house; details: CYP2A6 inhibition reaction mixture, probe coumarin, compound 5 µM
Method: as §2
(§3) To explore whether inactivation of CYP2As by thiophenes 9–11 and of CYP2A13 by hirsutinolides 5-8 could be reversed, the removal of reversible inhibitory compounds by dialysis and addition of trapping agents (GSH, semicarbazide, catalase or potassium ferricyanide) in the inhibition reaction mixture were performed. […] Similarly, mechanism-based inactivation of both CYP2A6 and CYP2A13 by thiophenes 9–11 could not be reversed (Table 3).

[5] = molecular target: T1, CYP2A13; assay: Effects of trapping agents and dialysis on inactivation of CYP2A13; type: biochemical; details: CYP2A13 inhibition reaction mixture, probe coumarin, compound 5 µM
Method: as §2, §3

[6] = molecular target: T2, CYP2A6; assay: Mechanism-based (time- and NADPH-dependent) inactivation of CYP2A6; type: biochemical; set-up: made in house; details: human, recombinant human CYP2A6, probe coumarin, pre-incubation 0-30 min with NADPH; for KI (inactivation): read-out: CYP2A6 KI (inactivation constant)
Method: as §2

[7] = molecular target: T1, CYP2A13; set-up: method as in PMID 23903410, PMID 17672516; details: literature values; cited from earlier work
[8] = molecular target: T2, CYP2A6; details: read-out: inactivation kinetic values (KI) against CYP2A6; literature values; cited from earlier work
[9] = molecular target: T2, CYP2A6; set-up: made in house; method as in PMID 25857233; details: cited from earlier work
[10] = molecular target: T2, CYP2A6; set-up: made in house; details: ref Prasopthum et al., 2015, cited from earlier work
[11] = 10-min pre-incubation in the presence of NADPH, read-out: IC50 CYP2A13 Pre-incubation
[12] = coincubation, coumarin 2 µM, read-out: IC50 CYP2A13 Coincubation
[13] = 10-min pre-incubation in the presence of NADPH, read-out: IC50 CYP2A6 Pre-incubation
[14] = coincubation, coumarin 2 µM, read-out: IC50 CYP2A6 Coincubation
[15] = read-out: Per cent remaining activity, 70 μM K3Fe(CN)6
[16] = read-out: Per cent remaining activity, 2 mM GSH
[17] = read-out: Per cent remaining activity, 5 mM semicarbazide
[18] = read-out: Per cent remaining activity, 2000 U catalase
[19] = read-out: Per cent remaining activity, Dialysis (+) NADPH
[20] = read-out: Per cent remaining activity, Dialysis (−) NADPH
[21] = read-out: Per cent remaining activity, Pre-incubation

Compound: CC#Cc1ccc(C#CC#CC(O)COC(C)=O)s1 (stereo not drawn) [Thiophene 10, 2-(prop-1-inyl)-5–(6-acetoxy-5-hydroxyhexa-1,3-diinyl) thiophene]
CYP2A13 Mode of inhibition [1]: Mixed type
IC50 [1, 11]: 1.15 ± 0.88 µM
IC50 [1, 12]: 2.94 ± 0.01 µM
Ki [1]: 1.12 ± 0.09 µM
kinact [2]: 0.001 s⁻¹
KI (inactivation) [2]: 0.86 ± 0.09 µM
CYP2A6 Mode of inhibition [3]: Mixed type
IC50 [3, 13]: 2.97 ± 0.01 µM
IC50 [3, 14]: 4.44 ± 0.14 µM
Ki [3]: 2.07 ± 0.23 µM
activity at 5 µM [4, 15]: 19.2 ± 1.83%
activity at 5 µM [4, 16]: 28.5 ± 1.72%
activity at 5 µM [4, 17]: 21.1 ± 3.31%
activity at 5 µM [4, 18]: 24.1 ± 4.49%
activity at 5 µM [4, 19]: 23.7 ± 2.06%
activity at 5 µM [4, 20]: 87.5 ± 9.25%
activity at 5 µM [4, 21]: 35.2 ± 3.22%
activity at 5 µM [5, 15]: 26.9 ± 1.75%
activity at 5 µM [5, 16]: 27 ± 8.11%
activity at 5 µM [5, 17]: 27 ± 8.11%
activity at 5 µM [5, 18]: 22.2 ± 2.38%
activity at 5 µM [5, 19]: 21.4 ± 3.95%
activity at 5 µM [5, 20]: 93 ± 6.58%
activity at 5 µM [5, 21]: 28.9 ± 1.25%
kinact [6]: 0.00183 s⁻¹
KI (inactivation) [6]: 1.01 ± 0.07 µM

Compound: CC(C)(C)N=C=S [tert-butyl isothiocyanate]
KI values against CYP2A13 [7]: 4.3 µM

Compound: rhinacanthin-B [reference compound]
KI values against CYP2A13 [7]: 0.16 µM
KI (inactivation) [8]: 0.44 µM

Compound: S=C=NCCCCCCc1ccccc1 [phenylhexyl isothiocyanate]
KI values against CYP2A13 [7]: 1.1 µM

Compound: CC#CC#Cc1ccc(C#CC(O)COC(C)=O)s1 (stereo not drawn) [Thiophene 9, 2-(penta-1,3-diyn-1-yl)-5–(4-acetoxy-3-hydroxybuta-1-yn-1-yl) thiophene]
CYP2A13 Mode of inhibition [1]: Mixed type
IC50 [1, 11]: 2.29 ± 0.34 µM
IC50 [1, 12]: 6.18 ± 0.28 µM
Ki [1]: 2.96 ± 0.1 µM
kinact [2]: 0.00133 s⁻¹
KI (inactivation) [2]: 0.97 ± 0.04 µM
CYP2A6 Mode of inhibition [3]: Mixed type
IC50 [3, 13]: 2.12 ± 0.19 µM
IC50 [3, 14]: 6.43 ± 1.29 µM
Ki [3]: 3.23 ± 0.43 µM
activity at 5 µM [4, 15]: 22.7 ± 1.58%
activity at 5 µM [4, 16]: 21.6 ± 1.97%
activity at 5 µM [4, 17]: 26.8 ± 2.39%
activity at 5 µM [4, 18]: 26.9 ± 3.07%
activity at 5 µM [4, 19]: 20.1 ± 5.21%
activity at 5 µM [4, 20]: 89.3 ± 7%
activity at 5 µM [4, 21]: 30.1 ± 3.7%
activity at 5 µM [5, 15]: 24.9 ± 3.95%
activity at 5 µM [5, 16]: 23.2 ± 3.38%
activity at 5 µM [5, 17]: 23.2 ± 3.38%
activity at 5 µM [5, 18]: 22.1 ± 2.39%
activity at 5 µM [5, 19]: 20.9 ± 0.24%
activity at 5 µM [5, 20]: 85.3 ± 4.98%
activity at 5 µM [5, 21]: 29 ± 4.57%
kinact [6]: 0.00167 s⁻¹
KI (inactivation) [6]: 0.88 ± 0.09 µM

Compound: S=C=NCCCc1ccccc1 [phenylpropyl isothiocyanate]
KI values against CYP2A13 [7]: 0.14 µM

Compound: rhinacanthin-A [reference compound]
KI values against CYP2A13 [7]: 0.42 µM
KI (inactivation) [8]: 0.69 µM

Compound: C/C=C(\C)CC/C=C(\C)C(=O)OCC(C)(C)CC1=C(O)C(=O)c2ccccc2C1=O [rhinacanthin-C, reference compound]
KI values against CYP2A13 [7]: 1.68 µM
KI (inactivation) [8]: 0.97 µM

IC50 [1, 11]: 0.17 ± 0.01 µM
IC50 [1, 12]: 0.18 ± 0.02 µM
Ki [1]: 0.07 ± 0.01 µM
Compound: O=c1cc(-c2ccc(O)c(O)c2)oc2cc(O)cc(O)c12 [Luteolin 2, luteolin]
inhibition of CYP2A6-mediated nicotine metabolism [9]: showed inhibition
IC50 [10, 13]: 1.26 ± 0.07 µM
IC50 [10, 14]: 1.38 ± 0.18 µM
Ki ([10]; coumarin 0–40 µM): 0.8 ± 0.06 µM
CYP2A6 Mode of inhibition [10]: Competitive^b
